Reference: patent publication US20150274719A1, “AMINO-SUBSTITUTED IMIDAZO[1,2-A]PYRIDINECARBOXAMIDES AND THEIR USE” (BAYER PHARMA AKTIENGESELLSCHAFT, priority 2012, published 2015)

target: T1, recombinant guanylate cyclase reporter cell line (Rattus norvegicus, UniProt P19686+P20595); assay: Action on recombinant guanylate cyclase reporter cell line; assay type: cell-based; conditions: in some cases mean values from individual determinations
T1 construct: expressed in transfected cells; host or cells: recombinant reporter cell line
T1 sequence (P19686 1-690): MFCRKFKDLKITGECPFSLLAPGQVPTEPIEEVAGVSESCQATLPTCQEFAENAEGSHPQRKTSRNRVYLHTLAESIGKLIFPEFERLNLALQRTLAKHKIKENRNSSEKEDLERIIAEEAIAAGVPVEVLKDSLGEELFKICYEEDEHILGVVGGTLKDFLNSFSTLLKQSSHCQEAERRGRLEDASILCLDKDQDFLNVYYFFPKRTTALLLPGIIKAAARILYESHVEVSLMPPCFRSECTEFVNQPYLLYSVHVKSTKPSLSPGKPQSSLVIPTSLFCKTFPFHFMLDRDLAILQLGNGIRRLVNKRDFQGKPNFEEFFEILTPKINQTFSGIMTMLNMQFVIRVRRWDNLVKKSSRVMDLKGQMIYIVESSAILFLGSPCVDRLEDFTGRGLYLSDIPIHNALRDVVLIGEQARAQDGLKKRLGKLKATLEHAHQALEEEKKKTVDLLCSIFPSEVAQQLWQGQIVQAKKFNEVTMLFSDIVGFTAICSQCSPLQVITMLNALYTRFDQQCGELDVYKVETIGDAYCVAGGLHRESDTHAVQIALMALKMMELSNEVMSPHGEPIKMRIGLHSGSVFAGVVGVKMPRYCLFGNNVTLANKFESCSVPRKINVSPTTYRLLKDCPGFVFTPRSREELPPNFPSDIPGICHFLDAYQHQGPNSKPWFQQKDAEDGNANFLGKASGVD
T1 sequence (P20595 1-619): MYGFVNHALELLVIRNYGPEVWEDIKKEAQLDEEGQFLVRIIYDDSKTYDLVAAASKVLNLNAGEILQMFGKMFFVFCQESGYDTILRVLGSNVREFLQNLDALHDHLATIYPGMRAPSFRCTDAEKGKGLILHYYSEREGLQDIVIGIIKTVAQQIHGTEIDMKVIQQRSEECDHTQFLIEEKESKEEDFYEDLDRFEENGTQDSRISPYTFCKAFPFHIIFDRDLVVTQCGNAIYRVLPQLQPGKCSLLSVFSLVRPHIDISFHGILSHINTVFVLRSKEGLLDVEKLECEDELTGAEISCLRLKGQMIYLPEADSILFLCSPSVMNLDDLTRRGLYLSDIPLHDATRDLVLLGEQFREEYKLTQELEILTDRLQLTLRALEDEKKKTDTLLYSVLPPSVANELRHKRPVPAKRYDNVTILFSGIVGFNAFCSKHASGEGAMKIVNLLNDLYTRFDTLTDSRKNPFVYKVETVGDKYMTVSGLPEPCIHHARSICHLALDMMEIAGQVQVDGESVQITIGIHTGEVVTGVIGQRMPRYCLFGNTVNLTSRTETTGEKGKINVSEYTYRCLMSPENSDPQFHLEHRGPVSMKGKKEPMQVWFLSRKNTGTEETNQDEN
In short: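 Reported value is the minimal effective concentration (MEC), in some cases a mean of single runs, taken from a recombinant rat guanylate cyclase reporter cell line.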

Row | MEC (minimal effective concentration) | SMILES
1 | 1.00 µM | Cc1nc2c(OCc3c(F)cc(F)cc3F)cccn2c1C(=O)NC(CN)c1ccc(F)c(F)c1 (stereo not drawn) [Example 101, ent-N-[2-amino-1-(3,,4-difluorophenyl)ethyl]-2-methyl-8-[(2,4,6-trifluorobenzyl)oxy]imidazo[1,2-a]pyridine-3-carboxamide]
2 | 1.00 µM | Cc1nc2c(OCc3c(F)cccc3Cl)cccn2c1C(=O)NC(CN)c1ccc(F)c(F)c1 (stereo not drawn) [Example 102, ent-N-[2-amino-1-(3,4-difluorophenyl)ethyl]-8-[(2-chloro-6-fluorobenzyl)oxy]-2-methylimidazo[1,2-a]pyridine-3-carboxamide]
3 | 3.00 µM | Cc1nc2c(OCc3c(F)cccc3F)cccn2c1C(=O)NCC(C)(C)CN [Example 103, N-(3-amino-2,2-dimethylpropyl)-8-[(2,6-difluorobenzyl)oxy]-2-methylimidazo[1,2-a]-pyridine-3-carboxamide]
4 | 0.30 µM | Cc1nc2c(OCc3c(F)cccc3F)cc(Cl)cn2c1C(=O)NCCC(C)(C)N [Example 104, N-(3-Amino-3-methylbutyl)-6-chloro-8-[(2,6-difluorobenzyl)oxy]-2-methylimidazo[1,2-a]-pyridine-3-carboxamide]
5 | 0.30 µM | Cc1cc(OCc2c(F)cccc2F)c2nc(C)c(C(=O)NCCC(C)(C)N)n2c1 [Example 114, N-(3-amino-3-methylbutyl)-8-[(2,6-difluorobenzyl)oxy]-2,6-dimethylimidazo[1,2-a]-pyridine-3-carboxamide]
6 | 1.00 µM | Cc1cc(OCc2c(F)cccc2F)c2nc(C)c(C(=O)NC[C@@H]3CCCN3)n2c1 [Example 115, 8-[(2,6-difluorobenzyl)oxy]-2,6-dimethyl-N-[(2S)-pyrrolidin-2-ylmethyl]imidazo[1,2-a]-pyridine-3-carboxamide]
7 | 3.00 µM | Cc1cc(OCc2c(F)cccc2F)c2nc(C)c(C(=O)NC[C@H]3CCCN3)n2c1 [Example 116, 8-[(2,6-difluorobenzyl)oxy]-2,6-dimethyl-N-[(2R)-pyrrolidin-2-ylmethyl]imidazo[1,2-a]-pyridine-3-carboxamide]
8 | 1.00 µM | Cc1nc2c(OCc3c(F)cccc3F)cccn2c1C(=O)NCCC(C)(C)N [Example 117, N-(3-amino-3-methylbutyl)-8-[(2,6-difluorobenzyl)oxy]-2-methylimidazo[1,2-a]-pyridine-3-carboxamide]
9 | 0.30 µM | Cc1nc2c(OCc3c(F)cccc3F)cccn2c1C(=O)NC(C)[C@H](C)N (stereo partly drawn) [Example 120, N-[(3S)-3-Aminobutan-2-yl]-8-[(2,6-difluorobenzyl)oxy]-2-methylimidazo[1,2-a]pyridine-3-carboxamide]
10 | 0.30 µM | Cc1nc2c(OCc3c(F)cccc3F)cccn2c1C(=O)NC(C)[C@@H](C)N (stereo partly drawn) [Example 121, N-[(3R)-3-Aminobutan-2-yl]-8-[(2,6-difluorobenzyl)oxy]-2-methylimidazo[1,2-a]pyridine-3-carboxamide]
11 | 1.00 µM | Cc1nc2c(OCc3c(F)cccc3F)cccn2c1C(=O)NC(CN)COc1ccc(F)c(F)c1 (stereo not drawn) [Example 124, ent-N-[1-Amino-3-(3,4-difluorophenoxyl)propan-2-yl]-8-[(2,6-difluorobenzyl)oxy]-2-methyl-imidazo[1,2-a]pyridine-3-carboxamide ditrifluoroacetate]
12 | 1.00 µM | Cc1nc2c(OCc3c(F)cccc3F)cccn2c1C(=O)NCCNC(C)C [Example 130, 8-[(2,6-difluorobenzyl)oxy]-N-[2-(isopropylamino)ethyl]-2-methylimidazo[1,2-a]-pyridine-3-carboxamide]
13 | 3.00 µM | Cc1nc2c(OCc3c(F)cccc3F)cccn2c1C(=O)NCCN1CCS(=O)(=O)CC1 [Example 131, 8-[(2,6-difluorobenzyl)oxy]-N-[2-(1,1-dioxidothiomorpholin-4-yl)ethyl]-2-methylimidazo[1,2-a]pyridine-3-carboxamide]
14 | 3.00 µM | Cc1nc2c(OCc3c(F)cccc3F)cccn2c1C(=O)NCCN1CCN(C)CC1 [Example 133, 8-[(2,6-difluorobenzyl)oxy]-2-methyl-N-[2-(4-methylpiperazin-1-yl)ethyl]imidazo[1,2-a]-pyridine-3-carboxamide]
15 | 0.10 µM | Cc1cc(OCc2c(F)cccc2F)c2nc(C)c(C(=O)NCCN3CCOCC3)n2c1 [Example 136, 8-[(2,6-difluorobenzyl)oxy]-2,6-dimethyl-N-[2-(morpholin-4-yl)ethyl]imidazo[1,2-a]pyridine-3-carboxamide]
16 | 1.00 µM | Cc1cc(OCc2c(F)cccc2F)c2nc(C)c(C(=O)NCCN3CCN(C)CC3)n2c1 [Example 137, 8-[(2,6-difluorobenzyl)oxy]-2,6-dimethyl-N-[2-(4-methylpiperazin-1-yl)ethyl]imidazo[1,2-a]-pyridine-3-carboxamide]
17 | 1.00 µM | Cc1cc(OCc2c(F)cccc2F)c2nc(C)c(C(=O)NCCN3CCN(C(C)C)CC3)n2c1 [Example 139, 8-[(2,6-difluorobenzyl)oxy]-N-[2-(4-isopropylpiperazin-1-yl)ethyl]-2,6-dimethylimidazo[1,2-a]pyridine-3-carboxamide]
18 | 1.00 µM | Cc1nc2c(OCc3c(F)cccc3F)cc(F)cn2c1C(=O)NCC(C)(C)N [Example 140, N-(2-Amino-2-methylpropyl)-8-[(2,6-difluorobenzyl)oxy]-6-fluoro-2-methylimidazo[1,2-a]-pyridine-3-carboxamide]
19 | 3.00 µM | Cc1nc2c(OCc3c(F)cccc3F)cccn2c1C(=O)NC(C)(C)C(C)(C)N [Example 141, N-(3-Amino-2,3-dimethylbutan-2-yl)-8-[(2,6-difluorobenzyl)oxy]-2-methylimidazo[1,2-a]pyridine-3-carboxamide]
20 | 0.30 µM | Cc1nc2c(OCc3c(F)cccc3F)cccn2c1C(=O)NCCN1CCC(F)(F)C1 [Example 143, 8-[(2,6-difluorobenzyl)oxy]-N-[2-(3,3-difluoropyrrolidin-1-yl)ethyl]-2-methylimidazo[1,2-a]pyridine-3-carboxamide]
21 | 3.00 µM | COCCNCCNC(=O)c1c(C)nc2c(OCc3c(F)cccc3F)cccn12 [Example 144, 8-[(2,6-difluorobenzyl)oxy]-N-{2-[(2-methoxyethyl)amino]ethyl}-2-methylimidazo[1,2-a]pyridine-3-carboxamide]
22 | 3.00 µM | Cc1nc2c(OCc3c(F)cccc3F)cccn2c1C(=O)NCC(C)(C)N(C)C [Example 145, 8-[(2,6-difluorobenzyl)oxy]-N-[2-(dimethylamino)-2-methylpropyl]-2-methylimidazo[1,2-a]pyridine-3-carboxamide]
23 | 1.00 µM | Cc1nc2c(OCc3c(F)cccc3F)cccn2c1C(=O)NCCN(CC(F)F)C1CC1 [Example 146, N-{2-[cyclopropyl(2,2-difluoroethyl)amino]ethyl}-8-[(2,6-difluorobenzyl)oxy]-2-methylimidazo[1,2-a]-pyridine-3-carboxamide]
24 | 1.00 µM | Cc1nc2c(OCc3c(F)cccc3F)cc(Cl)cn2c1C(=O)NCC(C)(C)N1CCCC1 [Example 148, 6-chloro-8-[(2,6-difluorobenzyl)oxy]-2-methyl-N-[2-methyl-2-(pyrrolidin-1-yl)-propyl]imidazo[1,2-a]pyridine-3-carboxamide]
25 | 1.00 µM | Cc1nc2c(OCc3c(F)cccc3F)cc(Cl)cn2c1C(=O)NCCNC(C)C [Example 149, 6-chloro-8-[(2,6-difluorobenzyl)oxy]-N-[2-(isopropylamino)ethyl]-2-methylimidazo[1,2-a]-pyridine-3-carboxamide]
26 | 0.10 µM | Cc1nc2c(OCc3c(F)cccc3F)cc(Cl)cn2c1C(=O)NCCN(CC(F)F)C1CC1 [Example 150, 6-chloro-N-{2-[cyclopropyl(2,2-difluoroethyl)-amino]ethyl}-8-[(2,6-difluorobenzyl)oxy]-2-methylimidazo[1,2-a]pyridine-3-carboxamide]
